Measurements as given in ChEMBL document CHEMBL1147542 (Bioorg Med Chem Lett, 2004).

Tests used:
[1] = Relative inhibition of PDE6 and PDE5
Phosphodiesterase 6 = test: Inhibition of phosphodiesterase 6 from bovine retina; assay type: protein assay, Bos taurus
Phosphodiesterase 1 = Phosphodiesterase 1 (Bos taurus, UniProt Q01061+P14100); test: Inhibition of phosphodiesterase 1 from bovine heart; assay type: protein assay
[2] = Relative inhibition of PDE1 and PDE5
[3] = test system: Phosphodiesterase 3 and 5 (Oryctolagus cuniculus); test: Relative inhibition of PDE3 and PDE5
[4] = target: Phosphodiesterase 3 (Oryctolagus cuniculus); test: Inhibition of phosphodiesterase 3 from rabbit platelets

- IC50 ratio [1]: 15
- IC50 (Phosphodiesterase 6): 2.58 nM
- IC50 (Phosphodiesterase 1): 156 nM
- IC50 ratio [2]: 918
- IC50 ratio [3]: > 15000
- IC50 [4]: 2600 nM
Structure (SMILES): CCCOc1ccc(S(=O)(=O)N2CCC(CP(=O)(O)OCC)CC2)cc1-c1nc2c(CCC)nn(C)c2c(=O)[nH]1
